# Data: ChEMBL document CHEMBL5370604, “Identification of Micrococcin P2-Derivatives as Antibiotic Candidates against Two Gram-Positive Pathogens” (J Med Chem, 2023)
# Calls of active or inactive are those of the source. The rule behind the calls is not given here.
# Tests used:
# [1] = system: Staphylococcus aureus; assay: (§1) In vivo antibacterial activity against methicillin-resistant Staphylococcus aureus KCCM 40511 ATCC 33593 infected in soft-skin tissue BALB/c mouse infection model assessed as downregulation of IL-6 levels in wound area treated as ointment administered twice at 6 and 12 hrs and measured after 24 hrs by ELISA assay; assay type: functional, organism-based
# [2] = system: Staphylococcus aureus; assay: as §1, with “IL-1beta” for “IL-6”; assay type: functional, organism-based
# [3] = system: Staphylococcus aureus; assay: Antibacterial activity against Staphylococcus aureus ATCC 4330 assessed as inhibition of bacterial growth measured after 16 to 24 hrs by CLSI based broth dilution method; assay type: functional; details: time 16-24 hrs
# [4] = system: Clostridioides difficile; assay: Antibacterial activity against Clostridioides difficile ATCC 43255 assessed as inhibition of bacterial growth measured after 24 hrs by CLSI based broth dilution method; assay type: functional
# [5] = system: Enterococcus faecalis; assay: Antibacterial activity against Enterococcus faecalis ATCC 29212 assessed as inhibition of bacterial growth measured after 24 hrs by CLSI based broth dilution method; assay type: functional
# [6] = system: Enterococcus faecalis; assay: Antibacterial activity against Clinical isolate Enterococcus faecalis assessed as inhibition of bacterial growth measured after 24 hrs by CLSI based broth dilution method; assay type: functional
# [7] = system: Enterococcus faecium; assay: Antibacterial activity against Enterococcus faecium ATCC 19434 assessed as inhibition of bacterial growth measured after 24 hrs by CLSI based broth dilution method; assay type: functional
# [8] = system: Clostridioides difficile; assay: Antibacterial activity against Clostridioides difficile ribotype 027 infected in colitis induced C57BL/6J mouse assessed as survival rate at 30 mg/kg, po qd pretreated with clindamycin followed by […] infection and compound addition measured on day 5; assay type: functional; details: ribotype 027, 120 h, time 5 day
# [9] = system: Clostridioides difficile; assay: Antibacterial activity against Clostridioides difficile ribotype 027 infected in colitis induced C57BL/6J mouse assessed as increase in survival rate without recurrence at 30 mg/kg, po qd pretreated with clindamycin followed by […] infection and compound addition measured on day 5; assay type: functional; details: time 5.0 day
# [10] = (§2) Toxicity in colitis-induced C57BL/6J mouse infected with Clostridioides difficile ribotype 027 assessed as increase in Enterococcus proportion in gut at 30 mg/kg, po qd pretreated with clindamycin followed by infected with […] and measured on day 6 post treatment by RNA sequencing analysis (reference value: 0%); assay type: organism-based; details: in vivo, 144 h, time 6 day
# [11] = as §2, with “Klebsiella” for “Enterococcus”; assay type: organism-based; details: in vivo, 144 h, time 6 day
# [12] = as §2, with “Escherichia” for “Enterococcus”; assay type: organism-based; details: in vivo, 144 h, time 6 day
# [13] = Toxicity in colitis-induced C57BL/6J mouse infected with Clostridioides difficile ribotype 027 assessed as effect on gut micro-biome at 30 mg/kg, po qd pretreated with clindamycin followed by infected with […] and measured on day 6 post treatment by RNA sequencing analysis; assay type: organism-based; details: in vivo, 144 h, time 6 day
# [14] = Toxicity in colitis-induced C57BL/6J mouse infected with Clostridioides difficile ribotype 027 assessed as effect on Firmicutes proportion in gut at 30 mg/kg, po qd pretreated with clindamycin followed by infected with […] and measured on day 6 post treatment by RNA sequencing analysis; assay type: organism-based; details: in vivo, 144 h, time 6 day
# [15] = Toxicity in colitis-induced C57BL/6J mouse infected with Clostridioides difficile ribotype 027 assessed as effect on Acinetobacter proportion in gut at 30 mg/kg, po qd pretreated with clindamycin followed by infected with […] and measured on day 6 post treatment by RNA sequencing analysis; assay type: organism-based; details: in vivo, 144 h, time 6 day
# [16] = Genotoxicity in Salmonella typhimurium TA98 incubated for 90 min by Ames test; assay type: toxicity; details: salmonella enterica subsp. enterica serovar typhimurium, 1.5 h
# [17] = Genotoxicity in Salmonella typhimurium TA100 incubated for 90 min by Ames test; assay type: toxicity; details: salmonella enterica subsp. enterica serovar typhimurium, 1.5 h
# [18] = Genotoxicity in Salmonella typhimurium TA98 incubated for 90 min in presence of S9 fraction by Ames test; assay type: toxicity, subcellular; details: salmonella enterica subsp. enterica serovar typhimurium, s9, 1.5 h
# [19] = Genotoxicity in Salmonella typhimurium TA100 incubated for 90 min in presence of S9 fraction by Ames test; assay type: toxicity, subcellular; details: salmonella enterica subsp. enterica serovar typhimurium, s9, 1.5 h
# [20] = biological target: Voltage-gated inwardly rectifying potassium channel KCNH2 (Homo sapiens, UniProt Q12809); assay: Inhibition of hERG expressed in HEK293 cells at 10 uM incubated for 5 mins by whole cell patch clamp assay; assay type: toxicity, cell-based; details: hek293, 5 min
# [21] = as §2, with “in Klebsiella” for “in Enterococcus”, “day 20” for “day 6”; assay type: organism-based; details: in vivo, 480 h, time 20 day
# [22] = as §2, with “day 20” for “day 6”; assay type: organism-based; details: in vivo, 480 h, time 20 day
# [23] = as §2, with “in Escherichia” for “in Enterococcus”, “day 20” for “day 6”; assay type: organism-based; details: in vivo, 480 h, time 20 day
# [24] = system: Clostridioides difficile; assay: Antibacterial activity against Clostridioides difficile RT001/ST3/A+B+ assessed as inhibition of bacterial growth measured after 24 hrs by CLSI based broth dilution method; assay type: functional
# [25] = system: Clostridioides difficile; assay: Antibacterial activity against Clostridioides difficile RT002/ST8/A+B+ assessed as inhibition of bacterial growth measured after 24 hrs by CLSI based broth dilution method; assay type: functional
# [26] = system: Clostridioides difficile; assay: Antibacterial activity against Clostridioides difficile RT012/ST54/A+B+ assessed as inhibition of bacterial growth measured after 24 hrs by CLSI based broth dilution method; assay type: functional
# [27] = system: Clostridioides difficile; assay: Antibacterial activity against Clostridioides difficile RT014/ST14/A+B+ assessed as inhibition of bacterial growth measured after 24 hrs by CLSI based broth dilution method; assay type: functional
# [28] = system: Clostridioides difficile; assay: Antibacterial activity against Clostridioides difficile RT015/ST35/A+B+ assessed as inhibition of bacterial growth measured after 24 hrs by CLSI based broth dilution method; assay type: functional
# [29] = system: Clostridioides difficile; assay: Antibacterial activity against Clostridioides difficile RT018/ST17/A+B+ assessed as inhibition of bacterial growth measured after 24 hrs by CLSI based broth dilution method; assay type: functional
# [30] = system: Clostridioides difficile; assay: Antibacterial activity against Clostridioides difficile RT293/ST129/A+B+ assessed as inhibition of bacterial growth measured after 24 hrs by CLSI based broth dilution method; assay type: functional
# [31] = system: Clostridioides difficile; assay: Antibacterial activity against Clostridioides difficile RT027/ST1/A+B+CDT+ assessed as inhibition of bacterial growth measured after 24 hrs by CLSI based broth dilution method; assay type: functional
# [32] = system: Clostridioides difficile; assay: Antibacterial activity against Clostridioides difficile NT/ST67/A+B+CDT+ assessed as inhibition of bacterial growth measured after 24 hrs by CLSI based broth dilution method; assay type: functional
# [33] = system: Clostridioides difficile; assay: Antibacterial activity against Clostridioides difficile RT130/ST5/A+B+CDT+ assessed as inhibition of bacterial growth measured after 24 hrs by CLSI based broth dilution method; assay type: functional
# [34] = system: Clostridioides difficile; assay: Antibacterial activity against Clostridioides difficile NT/ST221/A+B+CDT+ assessed as inhibition of bacterial growth measured after 24 hrs by CLSI based broth dilution method; assay type: functional
# [35] = system: Clostridioides difficile; assay: Antibacterial activity against Clostridioides difficile RT017/ST37/A-B+ assessed as inhibition of bacterial growth measured after 24 hrs by CLSI based broth dilution method; assay type: functional
# [36] = system: Clostridioides difficile; assay: Antibacterial activity against Clostridioides difficile RT078/ST11/A+B+CDT+ assessed as inhibition of bacterial growth measured after 24 hrs by CLSI based broth dilution method; assay type: functional
# [37] = Aqueous kinetic solubility of the compound at pH 7.4 incubated for 2 hrs by UPLC-MS analysis; assay type: physicochemical; details: read-out: Kinetic_solubility
# [38] = Effective permeability of the compound at pH 7.4 at 25 uM incubated for 5 hrs by skin PAMPA analysis; assay type: ADME; details: pH 7.4, 5 h
# [39] = Effective permeability of the compound at pH 5.5 at 25 uM incubated for 5 hrs by skin PAMPA analysis; assay type: ADME; details: pH 5.5, 5 h
# [40] = system: Staphylococcus aureus; assay: Antibacterial activity against methicillin-resistant Staphylococcus aureus assessed as inhibition of bacterial growth measured after 16 to 24 hrs by CLSI based broth dilution method; assay type: functional; details: time 16-24 hrs
# [41] = system: Staphylococcus aureus; assay: Antibacterial activity against clinical isolate methicillin-resistant Staphylococcus aureus assessed as log reduction in CFU/ml at 16 times of MIC measured after 24 hrs by time killing analysis; assay type: functional
# [42] = system: Staphylococcus aureus; assay: as §1, with “reduction in total number” for “downregulation”, “bacteria” for “IL-6 levels”, “relative to mupirocin” for “by ELISA assay”; assay type: functional
# Voltage-gated inwardly rectifying potassium channel KCNH2, sequence (Q12809 whole entry): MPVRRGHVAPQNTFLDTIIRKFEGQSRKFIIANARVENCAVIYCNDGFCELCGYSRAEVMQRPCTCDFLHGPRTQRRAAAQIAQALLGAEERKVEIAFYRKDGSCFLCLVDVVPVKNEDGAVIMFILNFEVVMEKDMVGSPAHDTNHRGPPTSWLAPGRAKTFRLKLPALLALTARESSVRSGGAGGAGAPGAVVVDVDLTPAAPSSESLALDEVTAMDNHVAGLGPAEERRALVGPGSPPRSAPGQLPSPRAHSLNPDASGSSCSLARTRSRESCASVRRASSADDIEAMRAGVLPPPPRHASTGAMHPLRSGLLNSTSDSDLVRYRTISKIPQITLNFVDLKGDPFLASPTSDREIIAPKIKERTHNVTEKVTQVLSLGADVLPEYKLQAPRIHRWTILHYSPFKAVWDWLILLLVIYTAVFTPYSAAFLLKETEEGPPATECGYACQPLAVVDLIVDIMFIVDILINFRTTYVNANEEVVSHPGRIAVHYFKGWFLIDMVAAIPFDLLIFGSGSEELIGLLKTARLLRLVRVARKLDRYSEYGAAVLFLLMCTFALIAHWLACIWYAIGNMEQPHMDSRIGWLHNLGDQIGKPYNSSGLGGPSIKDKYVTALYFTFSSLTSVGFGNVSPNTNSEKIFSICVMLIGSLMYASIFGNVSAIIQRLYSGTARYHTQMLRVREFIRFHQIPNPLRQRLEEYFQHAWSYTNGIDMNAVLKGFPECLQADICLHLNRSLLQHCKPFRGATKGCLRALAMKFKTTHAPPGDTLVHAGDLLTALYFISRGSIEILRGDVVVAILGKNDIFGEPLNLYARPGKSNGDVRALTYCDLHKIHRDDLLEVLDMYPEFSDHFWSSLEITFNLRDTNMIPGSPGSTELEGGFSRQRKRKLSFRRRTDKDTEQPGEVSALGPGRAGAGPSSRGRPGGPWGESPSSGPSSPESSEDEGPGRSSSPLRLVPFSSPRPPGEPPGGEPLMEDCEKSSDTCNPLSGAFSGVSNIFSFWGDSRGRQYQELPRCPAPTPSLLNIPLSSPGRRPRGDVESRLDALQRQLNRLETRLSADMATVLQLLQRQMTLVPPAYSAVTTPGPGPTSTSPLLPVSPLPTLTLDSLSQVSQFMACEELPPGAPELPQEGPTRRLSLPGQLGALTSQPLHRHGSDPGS
smiles,measurement,setting,value
C/C=C(\NC(=O)c1csc(-c2csc(-c3ccc4c(n3)-c3csc(n3)[C@H]([C@@H](C)O)NC(=O)c3csc(n3)[C@H](C(C)C)NC(=O)c3csc(n3)/C(=C/C)NC(=O)[C@H]([C@@H](C)O)NC(=O)c3csc-4n3)n2)n1)C(=O)NCCN1CCN(C(C)C)CC1 [listing 1 of 2 here],Activity,[1],Active
same,Activity,[2],Active
C/C=C(\NC(=O)c1csc(-c2csc(-c3ccc4c(n3)-c3csc(n3)[C@H]([C@@H](C)O)NC(=O)c3csc(n3)[C@H](C(C)C)NC(=O)c3csc(n3)/C(=C/C)NC(=O)[C@H]([C@@H](C)O)NC(=O)c3csc-4n3)n2)n1)C(=O)NCCn1c([N+](=O)[O-])cnc1C,MIC,[3],0.25 µg/mL
same,MIC,[4],0.125 µg/mL
same,MIC,[5],0.25 µg/mL
same,MIC,[6],0.25 µg/mL
same,MIC,[7],0.25 µg/mL
same,survival at 30 mg/kg,[8],80%
same,Activity,[9],Active
same,Activity,[10],0.52%
same,Activity,[11],0.94%
same,Activity,[12],2.88%
same,Activity,[13],Non-Toxic
same,Activity,[14],Non-Toxic
same,Activity,[15],Non-Toxic
same,Activity,[16],Non-Toxic
same,Activity,[17],Non-Toxic
same,Activity,[18],Non-Toxic
same,Activity,[19],Non-Toxic
same,inhibition (INH),[20],Active
same,Activity,[21],0.15%
same,Activity,[22],1.62%
same,Activity,[23],0.93%
same,MIC,[24],0.125 µg/mL
same,MIC,[25],0.125 µg/mL
same,MIC,[26],0.125 µg/mL
same,MIC,[27],0.125 µg/mL
same,MIC,[28],0.125 µg/mL
same,MIC,[29],0.125 µg/mL
same,MIC,[30],0.125 µg/mL
same,MIC,[31],0.125 µg/mL
same,MIC,[32],0.125 µg/mL
same,MIC,[33],0.125 µg/mL
same,MIC,[34],0.125 µg/mL
same,MIC,[35],0.125 µg/mL
same,MIC,[36],0.125 µg/mL
C/C=C(\NC(=O)c1csc(-c2csc(-c3ccc4c(n3)-c3csc(n3)[C@H]([C@@H](C)O)NC(=O)c3csc(n3)[C@H](C(C)C)NC(=O)c3csc(n3)/C(=C/C)NC(=O)[C@H]([C@@H](C)O)NC(=O)c3csc-4n3)n2)n1)C(=O)NCCN1CCN(C(C)C)CC1 [listing 2 of 2 here],MIC,[3],0.5 µg/mL
same,MIC,[4],0.5 µg/mL
same,solubility kinetic at 2 h,[37],150 µg/mL
same,Peff,[38],Impermeable
same,Peff,[39],Impermeable
same,MIC50,[40],2 µg/mL
same,MIC90,[40],4 µg/mL
same,Activity,[41],>=3 log10CFU/ml
same,fold change (FC),[42],1000
